Test results: US20220281848A1, “PYRAZOLE-SUBSTITUTED PYRROLIDINONES AS HERBICIDES” (FMC Corporation, priority 2019, published 2022)

Test system: plants
Test: Test D pre-emergence, other plants of Tables D1 and D3
Type: in vivo
Conditions: for damage to plant, ALOMY / damage to plant, AVEFA / damage to plant, BEAVA / damage to plant, BROTE / damage to plant, BRSNN / damage to plant, HORVW / damage to plant, SINAR: pre-emergence, 100=total damage, 0=no damage; for ABUTH damage to plant (100=total damage; 0=no damage) / AMARE damage to plant (100=total damage; 0=no damage) / DIGSA damage to plant (100=total damage; 0=no damage) / ECHCG damage to plant (100=total damage; 0=no damage) / ORYSA damage to plant (100=total damage; 0=no damage) / PANMI damage to plant (100=total damage; 0=no damage) / SETFA damage to plant (100=total damage; 0=no damage): preemergent
Method in brief: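 Seeds treated with herbicide safener; sown in soil; glasshouse, 16 h light, 65% humidity. Sprayed day 1 (pre) or ~day 12 (post). Spray in 0.2% v/v adjuvant. Scored 0–100 damage: 20 DAA pre, 15 d post.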

Structure (SMILES): CN1CC(c2cc(C(F)(F)F)n(C)n2)C(C(=O)Nc2cccc(F)n2)C1=O (racemic) [Compound 24]
- damage to plant, ALOMY (rate 15, 20 DAA): 0
- damage to plant, AVEFA (rate 15, 20 DAA): 0
- damage to plant, BEAVA (rate 15, 20 DAA): 0
- damage to plant, BROTE (rate 15, 20 DAA): 0
- damage to plant, BRSNN (rate 15, 20 DAA): 0
- damage to plant, HORVW (rate 15, 20 DAA): 0
- damage to plant, SINAR (rate 15, 20 DAA): 0
- damage to plant, ALOMY (rate 30, 20 DAA): 0
- damage to plant, AVEFA (rate 30, 20 DAA): 0
- damage to plant, BEAVA (rate 30, 20 DAA): 0
- damage to plant, BROTE (rate 30, 20 DAA): 0
- damage to plant, BRSNN (rate 30, 20 DAA): 0
- damage to plant, HORVW (rate 30, 20 DAA): 0
- damage to plant, SINAR (rate 30, 20 DAA): 0
- damage to plant, ALOMY (rate 60, 20 DAA): 0
- damage to plant, AVEFA (rate 60, 20 DAA): 0
- damage to plant, BEAVA (rate 60, 20 DAA): 0
- damage to plant, BROTE (rate 60, 20 DAA): 0
- damage to plant, BRSNN (rate 60, 20 DAA): 0
- damage to plant, HORVW (rate 60, 20 DAA): 0
- damage to plant, SINAR (rate 60, 20 DAA): 0
- damage to plant, ALOMY (rate 130, 20 DAA): 0
- damage to plant, AVEFA (rate 130, 20 DAA): 0
- damage to plant, BEAVA (rate 130, 20 DAA): 0
- damage to plant, BROTE (rate 130, 20 DAA): 0
- damage to plant, BRSNN (rate 130, 20 DAA): 0
- damage to plant, HORVW (rate 130, 20 DAA): 0
- damage to plant, SINAR (rate 130, 20 DAA): 0
- damage to plant, ALOMY (rate 250, 20 DAA): 0
- damage to plant, AVEFA (rate 250, 20 DAA): 0
- damage to plant, BEAVA (rate 250, 20 DAA): 0
- damage to plant, BROTE (rate 250, 20 DAA): 0
- damage to plant, BRSNN (rate 250, 20 DAA): 0
- damage to plant, HORVW (rate 250, 20 DAA): 0
- damage to plant, SINAR (rate 250, 20 DAA): 0
- damage to plant, ALOMY (rate 500, 20 DAA): 10
- damage to plant, AVEFA (rate 500, 20 DAA): 10
- damage to plant, BEAVA (rate 500, 20 DAA): 0
- damage to plant, BROTE (rate 500, 20 DAA): 0
- damage to plant, BRSNN (rate 500, 20 DAA): 0
- damage to plant, HORVW (rate 500, 20 DAA): 20
- damage to plant, SINAR (rate 500, 20 DAA): 0
- ABUTH damage to plant (100=total damage; 0=no damage) (Rates 15, 20 DAA): 0
- AMARE damage to plant (100=total damage; 0=no damage) (Rates 15, 20 DAA): 0
- DIGSA damage to plant (100=total damage; 0=no damage) (Rates 15, 20 DAA): 0
- ECHCG damage to plant (100=total damage; 0=no damage) (Rates 15, 20 DAA): 0
- ORYSA damage to plant (100=total damage; 0=no damage) (Rates 15, 20 DAA): 0
- PANMI damage to plant (100=total damage; 0=no damage) (Rates 15, 20 DAA): 0
- SETFA damage to plant (100=total damage; 0=no damage) (Rates 15, 20 DAA): 0
- ABUTH damage to plant (100=total damage; 0=no damage) (Rates 30, 20 DAA): 0
- AMARE damage to plant (100=total damage; 0=no damage) (Rates 30, 20 DAA): 0
- DIGSA damage to plant (100=total damage; 0=no damage) (Rates 30, 20 DAA): 30
- ECHCG damage to plant (100=total damage; 0=no damage) (Rates 30, 20 DAA): 10
- ORYSA damage to plant (100=total damage; 0=no damage) (Rates 30, 20 DAA): 0
- PANMI damage to plant (100=total damage; 0=no damage) (Rates 30, 20 DAA): 0
- SETFA damage to plant (100=total damage; 0=no damage) (Rates 30, 20 DAA): 0
- ABUTH damage to plant (100=total damage; 0=no damage) (Rates 60, 20 DAA): 0
- AMARE damage to plant (100=total damage; 0=no damage) (Rates 60, 20 DAA): 0
- DIGSA damage to plant (100=total damage; 0=no damage) (Rates 60, 20 DAA): 80
- ECHCG damage to plant (100=total damage; 0=no damage) (Rates 60, 20 DAA): 50
- ORYSA damage to plant (100=total damage; 0=no damage) (Rates 60, 20 DAA): 0
- PANMI damage to plant (100=total damage; 0=no damage) (Rates 60, 20 DAA): 0
- SETFA damage to plant (100=total damage; 0=no damage) (Rates 60, 20 DAA): 0
- ABUTH damage to plant (100=total damage; 0=no damage) (Rates 130, 20 DAA): 0
- AMARE damage to plant (100=total damage; 0=no damage) (Rates 130, 20 DAA): 0
- DIGSA damage to plant (100=total damage; 0=no damage) (Rates 130, 20 DAA): 90
- ECHCG damage to plant (100=total damage; 0=no damage) (Rates 130, 20 DAA): 70
- ORYSA damage to plant (100=total damage; 0=no damage) (Rates 130, 20 DAA): 0
- PANMI damage to plant (100=total damage; 0=no damage) (Rates 130, 20 DAA): 0
- SETFA damage to plant (100=total damage; 0=no damage) (Rates 130, 20 DAA): 30
- ABUTH damage to plant (100=total damage; 0=no damage) (Rates 250, 20 DAA): 20
- AMARE damage to plant (100=total damage; 0=no damage) (Rates 250, 20 DAA): 0
- DIGSA damage to plant (100=total damage; 0=no damage) (Rates 250, 20 DAA): 90
- ECHCG damage to plant (100=total damage; 0=no damage) (Rates 250, 20 DAA): 90
- ORYSA damage to plant (100=total damage; 0=no damage) (Rates 250, 20 DAA): 0
- PANMI damage to plant (100=total damage; 0=no damage) (Rates 250, 20 DAA): 0
- SETFA damage to plant (100=total damage; 0=no damage) (Rates 250, 20 DAA): 60
- ABUTH damage to plant (100=total damage; 0=no damage) (Rates 500, 20 DAA): 20
- AMARE damage to plant (100=total damage; 0=no damage) (Rates 500, 20 DAA): 10
- DIGSA damage to plant (100=total damage; 0=no damage) (Rates 500, 20 DAA): 90
- ECHCG damage to plant (100=total damage; 0=no damage) (Rates 500, 20 DAA): 90
- ORYSA damage to plant (100=total damage; 0=no damage) (Rates 500, 20 DAA): 0
- PANMI damage to plant (100=total damage; 0=no damage) (Rates 500, 20 DAA): 0
- SETFA damage to plant (100=total damage; 0=no damage) (Rates 500, 20 DAA): 90
